Measured values published in patent publication EP3228306A1, “COMPLEX COMPOUND COMPRISING OBETICHOLIC ACID AND CYCLODEXTRIN AND PHARMACEUTICAL FORMULATION COMPRISING THE COMPLEX COMPOUND” (ratiopharm GmbH, priority 2016, dated 2017).
Values after ≈ are worked out from the molar mass of the structure shown. Like-named read-outs stand apart in the source and are kept apart here.

Key:
[1] = cited from earlier work
[2] = Solubility of OCA in concentrated aqueous CD solutions (Experiment 2); type: physicochemical; conditions: stirred 60 h
Experimental: Variable amounts of solid OCA (left column of the Tables given below) were stirred in aqueous CD-solutions (14% (w/w) α-CD, 1.8% β-CD, 20% γ-CD, 20% HP-β-CD, 30% SB-β-CD, 30% RM-β-CD, and 40% HP-γ-CD) for 60 h. Aliquots were filtered through 0.2 µm disposable PTFE filters and the filtrates were analyzed by HPLC/UV. The concentration of OCA was determined based on a calibration curve which was established by twofold analysis of five calibration standards with 0.01 mg/mL to 1.0 mg/mL OCA.

[3] = Solubility of OCA:CD complexes in physiologically relevant media; type: physicochemical; conditions: thermodynamic from solid, 37°C, complex corresponding to 20 mg obeticholic acid in 2 mL
Experimental: Obeticholic acid (OCA) or OCA: Cyclodextrin (CD) complex was weighed into a glass vial, followed by addition of 1 or 2 ml solvent (water, 0.01 N HCl, phosphate buffer pH 6.8 and FaSSIF). A stirring bar was added, the vial was fixed in a block heater at 37°C and the suspension was stirred with approx. 250 rpm. After 15 min and 1 h, samples were withdrawn, filtered through a 0.2 µm disposable filter, 100 µl of the clear filtrate were diluted with 900 µl acetonitrile (ACN):Water (1:1) and 1 µl thereof were analyzed by UHPLC/UV.
Solubilities of OCA:CD complexes were determined by stirring an amount of complex which corresponds to 20 mg of obeticholic acid (calculated from the known drug loads) in 2 mL of solvent for 15 min and 60 min at 37°C according to the method described above under "Analytical Methods". Solubility values are given in mg/ml.

[4] = reported in WO 2013/192097; measured in 0.1 N HCl after equilibration under stirring for one week at 25°C; cited from earlier work

- dissolved OCA ([2]; HP-β-CD (20%) aqueous solution, OCA 10 mg/mL weighed): 9.425 mg/mL
- dissolved OCA ([2]; HP-β-CD (20%) aqueous solution, OCA 20 mg/mL weighed): 18.716 mg/mL
- dissolved OCA ([2]; HP-β-CD (20%) aqueous solution, OCA 40 mg/mL weighed): 37.499 mg/mL
- dissolved OCA ([2]; HP-β-CD (20%) aqueous solution, OCA 50 mg/mL weighed): 45.473 mg/mL
- dissolved OCA ([2]; HP-β-CD (20%) aqueous solution, OCA 60 mg/mL weighed): 45.785 mg/mL
- dissolved OCA ([2]; HP-γ-CD (40%) aqueous solution, OCA 10 mg/mL weighed): 8.704 mg/mL
- dissolved OCA ([2]; HP-γ-CD (40%) aqueous solution, OCA 20 mg/mL weighed): 18.095 mg/mL
- dissolved OCA ([2]; HP-γ-CD (40%) aqueous solution, OCA 40 mg/mL weighed): 35.632 mg/mL
- dissolved OCA ([2]; HP-γ-CD (40%) aqueous solution, OCA 80 mg/mL weighed): 62.989 mg/mL
- dissolved OCA ([2]; RM-β-CD (30%) aqueous solution, OCA 20 mg/mL weighed): 17.374 mg/mL
- dissolved OCA ([2]; RM-β-CD (30%) aqueous solution, OCA 40 mg/mL weighed): 37.316 mg/mL
- dissolved OCA ([2]; RM-β-CD (30%) aqueous solution, OCA 80 mg/mL weighed): 63.629 mg/mL
- dissolved OCA ([2]; RM-β-CD (30%) aqueous solution, OCA 160 mg/mL weighed): 78.693 mg/mL
- dissolved OCA ([2]; SB-β-CD (30%) aqueous solution, OCA 20 mg/mL weighed): 17.545 mg/mL
- dissolved OCA ([2]; SB-β-CD (30%) aqueous solution, OCA 40 mg/mL weighed): 38.735 mg/mL
- dissolved OCA ([2]; SB-β-CD (30%) aqueous solution, OCA 80 mg/mL weighed): 60.767 mg/mL
- dissolved OCA ([2]; SB-β-CD (30%) aqueous solution, OCA 160 mg/mL weighed): 57.080 mg/mL
- dissolved OCA ([2]; α-CD (14%) aqueous solution, OCA 5 mg/mL weighed): 4.614 mg/mL
- dissolved OCA ([2]; α-CD (14%) aqueous solution, OCA 10 mg/mL weighed): 6.154 mg/mL
- dissolved OCA ([2]; α-CD (14%) aqueous solution, OCA 20 mg/mL weighed): 6.937 mg/mL
- dissolved OCA ([2]; α-CD (14%) aqueous solution, OCA 40 mg/mL weighed): 7.141 mg/mL
- dissolved OCA ([2]; β-CD (1.8%) aqueous solution, OCA 2.5 mg/mL weighed): 2.229 mg/mL
- dissolved OCA ([2]; β-CD (1.8%) aqueous solution, OCA 5 mg/mL weighed): 4.312 mg/mL
- dissolved OCA ([2]; β-CD (1.8%) aqueous solution, OCA 10 mg/mL weighed): 4.830 mg/mL
- dissolved OCA ([2]; β-CD (1.8%) aqueous solution, OCA 20 mg/mL weighed): 4.880 mg/mL
- dissolved OCA ([2]; γ-CD (20%) aqueous solution, OCA 5 mg/mL weighed): 0.069 mg/mL
- dissolved OCA ([2]; γ-CD (20%) aqueous solution, OCA 10 mg/mL weighed): 0.069 mg/mL
- dissolved OCA ([2]; γ-CD (20%) aqueous solution, OCA 20 mg/mL weighed): 0.066 mg/mL
- dissolved OCA ([2]; γ-CD (20%) aqueous solution, OCA 40 mg/mL weighed): 0.055 mg/mL
- solubility at 15 min ([3]; 0.01 N HCl, pH 2.2, simulated gastric fluid, read-out: Solubility, 0.01 N HCl (pH 2.2), 15 min): < 10 µg/mL
- solubility at 60 min ([3]; 0.01 N HCl, pH 2.2, simulated gastric fluid, read-out: Solubility, 0.01 N HCl (pH 2.2), 60 min): < 10 µg/mL
- solubility at 15 min ([3]; 50 mM KH2PO4 phosphate buffer, pH 6.5, aqueous buffer, read-out: Solubility, 50 mM KH2PO4 (pH 6.5), 15 min): 110 µg/mL (≈ 262 µM)
- solubility at 60 min ([3]; 50 mM KH2PO4 phosphate buffer, pH 6.5, aqueous buffer, read-out: Solubility, 50 mM KH2PO4 (pH 6.5), 60 min): 110 µg/mL (≈ 262 µM)
- solubility at 15 min ([3]; FaSSIF, pH 6.5, fassif, Fasted State Simulated Intestinal Fluid, read-out: Solubility, FassiF* (pH 6.5), 15 min): 520 µg/mL (≈ 1240 µM)
- solubility at 60 min ([3]; FaSSIF, pH 6.5, fassif, Fasted State Simulated Intestinal Fluid, read-out: Solubility, FassiF* (pH 6.5), 60 min): 420 µg/mL (≈ 998 µM)
- solubility at 15 min ([3]; water, pH 7, water, read-out: Solubility, Water (pH 7), 15 min): < 10 µg/mL
- solubility at 60 min ([3]; water, pH 7, water, read-out: Solubility, Water (pH 7), 60 min): < 10 µg/mL
SMILES: CC[C@H]1[C@@H](O)[C@@H]2[C@H](CC[C@]3(C)[C@@H]([C@H](C)CCC(=O)O)CC[C@@H]23)[C@@]2(C)CC[C@@H](O)C[C@@H]12 [OCA, 6α-ethyl-chenodeoxycholic acid]
- thermodynamic pKa [1]: about 5
- water solubility [4]: 7.5 µg/mL (≈ 17.8 µM)
